Results: patent US11965039B2, “Compstatin analogues and their medical uses” (priority 2018, dated 2024)
Starred links: 1 amine or outer side, 2 acyl side, 3 side chain; linkers in the order of their positions; H or OH if unused. Positions of bridges follow the written chain, without caps; N, C: chain ends. Non-standard residues stand in square brackets, D forms with d. Residues, ends and D or L forms follow the SMILES beside them. Groups on a side chain read outwards from the residue. *: point of attachment. Trp(1-Me) = Cn1cc(C[C@H](N)C(=O)O)c2ccccc21; C18 diacid = O=C(O)CCCCCCCCCCCCCCCCC(=O)*; C16 diacid = O=C(O)CCCCCCCCCCCCCCC(=O)*; γGlu = O=C(O)[C@H](CCC(=O)[*:2])N[*:1]; AEEA = NCCOCCOCC(=O)O; Sar = CNCC(=O)O

Legend:
[1] = tested on: classical complement pathway; test: In vitro haemolysis assay (inhibition of classical complement pathway); assay type: cell-based, human; settings: human serum, sensitized sheep red blood cells; Table 3, given as upper bounds; read-out: IC50, inhibition of hemolysis
Procedure, shortened: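 Compound dilutions preincubated 15 min at room temperature with diluted human serum (titrated per batch for 70-90% maximal haemolysis), then antibody-sensitized sheep RBC (10^7/well) added for 30 min at 37 °C in Tris/casein buffer, pH 7.4. Stopped with EDTA; haemolysis read at 405 nm; IC50 by 4PL fit.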

[2] = tested on: alternative complement pathway; test: Ex vivo alternative pathway complement activity (WIESLAB kit) after s.c. dosing in non-human primates; set-up: species or system Cynomolgus monkeys (Macaca fascicularis); settings: NHP, subcutaneous 1840 nmol/kg, FIG. 1a-f
Experimental: FIG. 1(a-f): Normalized “ex vivo” activity of the alternative complement pathway over time after administration of a test compound at time 0 to one or two non-human primates. Compounds were given subcutaneously at a dose of 1840 nmol/kg. Complement activity (alternative pathway) was measured using the Wieslab kit. Activity was normalized using the predose (0) sample (set to 100%) and the negative control included in the kit. Normalized activity or average normalized activity for both animals and standard deviation is shown.
(§1) Healthy male Cynomolgus monkeys (Macaca fascicularis) received single subcutaneous administrations of each test substance. Compounds were formulated in 20 mM phosphate adjusted with NaOH to pH 7.5 and mannitol for isotonicity and dosed at 1840 nmol/kg. Blood was collected from a femoral vein from each animal at the following times: Pre-dose, 1, 2, 4, 8, 24, 48, 72, 96 and 120 h (10 sampling times). Blood was collected into serum separation tubes and allowed to clot at room temperature. The tubes were centrifuged and resulting serum was aliquoted and snap-frozen over dry-ice and stored at nominally −80° C. until analysis. All NHP studies were performed in accordance with animal welfare laws and regulations, including approval of the study by a local ethical review process.
Serum isolated from non-human primates at specific time points after dosing were analyzed for alternative pathway complement activity using the Complement system Alternative Pathway WIESLAB® kit from Svar Life Science (previously Euro diagnostic AB, Sweden) following the manufacturer's protocol. Briefly, serum samples or controls were diluted in buffer and incubated in microtitre strips coated with specific activators of the alternative pathway. The wells were washed and formed C5b-9 was detected using included colorimetric reagents. Absorbance at 405 nm was measured. The percent activity of the alternative complement pathway was calculated for each animal and timepoint relative to the pre-dose activity (0 hours) of the individual animal with subtraction of the negative control. […]

[3] = Pharmacokinetic half-life in non-human primates (serum, LC-MS/MS); assay type: in vivo, Cynomolgus monkeys (Macaca fascicularis); settings: male, cynomolgus monkey, sc, NHP, single subcutaneous dose 1840 nmol/kg, * = approximate determination
Experimental: as §1
In order to assess pharmacokinetic half-life (t ½), serum samples isolated from non-human primates at specific time points after dosing were analysed for total drug compound after sample preparation by solid phase extraction (SPE) and liquid chromatography mass spectrometry (LC-MS/MS) using analogue internal standard. Single measurement of serum concentrations were used for calculation of the pharmacokinetic parameters using the non-compartmental approach in Phoenix WinNonlin 6.3. Plasma terminal elimination half-life (t½) was determined as In(2)/λz where λz is the magnitude of the slope of the log linear regression of the log concentration versus time profile during the terminal phase.

[4] = Solubility test at 10 mg/mL (visual inspection and light scattering); assay type: physicochemical; settings: for Solubility, Condition 1: Acetate pH 4; for Solubility, Condition 2: Acetate pH 5; for Solubility, Condition 3: Phosphate pH 6; for Solubility, Condition 4: Phosphate pH 7; for Solubility, Condition 5: Phosphate pH 7.5

Row | Compound | IC50 [1] | duration of action (alternative pathway complement activity) [2] | half-life [3] | Solubility, Condition 1 [4] | Solubility, Condition 2 [4] | Solubility, Condition 3 [4] | Solubility, Condition 4 [4] | Solubility, Condition 5 [4]
1 | CC[C@H](C)[C@H](NC(=O)[C@H](N)Cc1ccc(O)cc1)C(=O)N[C@H]1CSSC[C@@H](C(=O)N(C)[C@H](C(N)=O)[C@@H](C)CC)NC(=O)[C@H](CCCNC(=N)N)NC(=O)[C@H](Cc2c[nH]cn2)NC(=O)[C@H](C)NC(=O)CN(C)C(=O)[C@H](Cc2c[nH]c3ccccc23)NC(=O)[C@H](CC(=O)O)NC(=O)[C@H](CCC(N)=O)NC(=O)[C@H](Cc2cn(C)c3ccccc23)NC(=O)[C@H](C(C)C)NC1=O [Cp40, H-{d}YIC(1)V[1-Me-Trp]QDW[Sar]AHRC(1)[N-Me-Ile]-NH2, reference compound] | < 100 nM | relatively short duration of action | – | – | – | – | – | –
2 | CC[C@H](C)[C@@H]1NC(=O)[C@@H](NC(=O)[C@H](Cc2ccc(O)cc2)NC(=O)[C@H](C)NC(=O)[C@H](CO)NC(=O)CNC(=O)[C@H](CCC(=O)O)NC(C)=O)CSSC[C@@H](C(=O)N(C)CC(=O)N[C@@H](CCC(=O)O)C(=O)NCC(=O)N[C@@H](CCCCNC(=O)COCCOCCNC(=O)COCCOCCNC(=O)CC[C@H](NC(=O)CCCCCCCCCCCCCCC(=O)O)C(=O)O)C(N)=O)NC(=O)[C@H](CCCNC(=N)N)NC(=O)[C@H](Cc2c[nH]cn2)NC(=O)[C@H](CCC(=O)O)NC(=O)CNC(=O)[C@H](Cc2c[nH]c3ccccc23)NC(=O)[C@H](CC(=O)O)NC(=O)[C@H](CCC(N)=O)NC(=O)[C@H](Cc2cn(C)c3ccccc23)NC1=O [Compound 104] (Ac-EGSAYCI[Trp(1-Me)]QDWGEHRC[Sar]EGK([AEEA-AEEA-γGlu-C16 diacid])-NH2; disulfide 6-16) | < 100 nM | – | ~96.3 h | − (“−” denotes lack of solubility at the given condition, as UV absorbance at 340 nm exceeds 0.1 AU and/or it is visibly turbid or contains particles) | + (“+” denotes solubility at the given condition, as determined by UV absorbance being less than 0.1 AU at 340 nm and the sample being clear when manually inspected) | + (“+” denotes solubility at the given condition, as determined by UV absorbance being less than 0.1 AU at 340 nm and the sample being clear when manually inspected) | + (“+” denotes solubility at the given condition, as determined by UV absorbance being less than 0.1 AU at 340 nm and the sample being clear when manually inspected) | + (“+” denotes solubility at the given condition, as determined by UV absorbance being less than 0.1 AU at 340 nm and the sample being clear when manually inspected)
3 | CC[C@H](C)[C@@H]1NC(=O)[C@@H](NC(=O)[C@H](Cc2ccc(O)cc2)NC(=O)[C@H](CCC(=O)O)NC(=O)[C@H](CO)NC(C)=O)CSSC[C@@H](C(=O)N(C)CC(=O)N[C@@H](CCC(=O)O)C(=O)NCC(=O)N[C@@H](C)C(=O)N[C@@H](CCCCNC(=O)COCCOCCNC(=O)CC[C@H](NC(=O)COCCOCCNC(=O)CNC(=O)CC[C@H](NC(=O)CCCCCCCCCCCCCCCCC(=O)O)C(=O)O)C(=O)O)C(N)=O)NC(=O)[C@H](CCCNC(=N)N)NC(=O)[C@H](Cc2c[nH]cn2)NC(=O)[C@H](CCC(=O)O)NC(=O)CNC(=O)[C@H](Cc2c[nH]c3ccccc23)NC(=O)[C@H](CC(=O)O)NC(=O)[C@H](CCC(N)=O)NC(=O)[C@H](Cc2cn(C)c3ccccc23)NC1=O [Compound 118] (Ac-SEYCI[Trp(1-Me)]QDWGEHRC[Sar]EGAK([AEEA-γGlu-AEEA-Gly-γGlu-C18 diacid])-NH2; disulfide 4-14) | < 100 nM | – | ~78.7 h | − (“−” denotes lack of solubility at the given condition, as UV absorbance at 340 nm exceeds 0.1 AU and/or it is visibly turbid or contains particles) | + (“+” denotes solubility at the given condition, as determined by UV absorbance being less than 0.1 AU at 340 nm and the sample being clear when manually inspected) | + (“+” denotes solubility at the given condition, as determined by UV absorbance being less than 0.1 AU at 340 nm and the sample being clear when manually inspected) | + (“+” denotes solubility at the given condition, as determined by UV absorbance being less than 0.1 AU at 340 nm and the sample being clear when manually inspected) | + (“+” denotes solubility at the given condition, as determined by UV absorbance being less than 0.1 AU at 340 nm and the sample being clear when manually inspected)
4 | CC[C@H](C)[C@@H]1NC(=O)[C@@H](NC(=O)[C@H](Cc2ccc(O)cc2)NC(=O)[C@H](C)NC(=O)[C@H](CO)NC(C)=O)CSSC[C@@H](C(=O)N(C)CC(=O)N[C@@H](CCC(=O)O)C(=O)N[C@@H](CCCCNC(=O)CC[C@H](NC(=O)CNC(=O)CC[C@H](NC(=O)CCCCCCCCCCCCCCCCC(=O)O)C(=O)O)C(=O)O)C(N)=O)NC(=O)[C@H](CCCNC(=N)N)NC(=O)[C@H](Cc2c[nH]cn2)NC(=O)[C@H](CCC(=O)O)NC(=O)CNC(=O)[C@H](Cc2c[nH]c3ccccc23)NC(=O)[C@H](CC(=O)O)NC(=O)[C@H](CCC(N)=O)NC(=O)[C@H](Cc2cn(C)c3ccccc23)NC1=O [Compound 106] (Ac-SAYCI[Trp(1-Me)]QDWGEHRC[Sar]EK([γGlu-Gly-γGlu-C18 diacid])-NH2; disulfide 4-14) | < 250 nM | – | ~93.9 h | – | – | – | – | –
5 | CC[C@H](C)[C@@H]1NC(=O)[C@@H](NC(=O)[C@H](Cc2ccc(O)cc2)NC(=O)[C@H](C)NC(=O)[C@H](CO)NC(=O)CNC(=O)[C@H](CCC(=O)O)NC(C)=O)CSSC[C@@H](C(=O)N(C)CC(=O)N[C@@H](CCC(=O)O)C(=O)N[C@@H](CCCCN)C(=O)N[C@@H](CCC(=O)N[C@@H](CCCCNC(=O)COCCOCCNC(=O)COCCOCCNC(=O)CC[C@H](NC(=O)CCCCCCCCCCCCCCCCC(=O)O)C(=O)O)C(N)=O)C(=O)O)NC(=O)[C@H](CCCNC(=N)N)NC(=O)[C@H](Cc2c[nH]cn2)NC(=O)[C@H](CCC(=O)O)NC(=O)CNC(=O)[C@H](Cc2c[nH]c3ccccc23)NC(=O)[C@H](CC(=O)O)NC(=O)[C@H](CCC(N)=O)NC(=O)[C@H](Cc2cn(C)c3ccccc23)NC1=O [Compound 111] (Ac-EGSAYCI[Trp(1-Me)]QDWGEHRC[Sar]EK[γGlu]K([AEEA-AEEA-γGlu-C18 diacid])-NH2; disulfide 6-16) | < 100 nM | – | ~157 h | − (“−” denotes lack of solubility at the given condition, as UV absorbance at 340 nm exceeds 0.1 AU and/or it is visibly turbid or contains particles) | − (“−” denotes lack of solubility at the given condition, as UV absorbance at 340 nm exceeds 0.1 AU and/or it is visibly turbid or contains particles) | + (“+” denotes solubility at the given condition, as determined by UV absorbance being less than 0.1 AU at 340 nm and the sample being clear when manually inspected) | + (“+” denotes solubility at the given condition, as determined by UV absorbance being less than 0.1 AU at 340 nm and the sample being clear when manually inspected) | + (“+” denotes solubility at the given condition, as determined by UV absorbance being less than 0.1 AU at 340 nm and the sample being clear when manually inspected)
